The text below walks through data of publication PMC10821196, “Analysis of Marrubiin in Marrubium alysson L. Extract Using Advanced HPTLC: Chemical Profiling, Acetylcholinesterase Inhibitory Activity, and Molecular Docking” (Metabolites, 2023).

This test deals with T1, acetylcholinesterase (AChE) (Electrophorus electricus, UniProt O42275).
T1 construct: commercial native enzyme from electric eel (Sigma-Aldrich)
Put plainly: Ellman assay, […] nm. In kind it is biochemical. (In general: DTNB colorimetry detects thiols as they appear.)

T1 sequence (O42275 24-633): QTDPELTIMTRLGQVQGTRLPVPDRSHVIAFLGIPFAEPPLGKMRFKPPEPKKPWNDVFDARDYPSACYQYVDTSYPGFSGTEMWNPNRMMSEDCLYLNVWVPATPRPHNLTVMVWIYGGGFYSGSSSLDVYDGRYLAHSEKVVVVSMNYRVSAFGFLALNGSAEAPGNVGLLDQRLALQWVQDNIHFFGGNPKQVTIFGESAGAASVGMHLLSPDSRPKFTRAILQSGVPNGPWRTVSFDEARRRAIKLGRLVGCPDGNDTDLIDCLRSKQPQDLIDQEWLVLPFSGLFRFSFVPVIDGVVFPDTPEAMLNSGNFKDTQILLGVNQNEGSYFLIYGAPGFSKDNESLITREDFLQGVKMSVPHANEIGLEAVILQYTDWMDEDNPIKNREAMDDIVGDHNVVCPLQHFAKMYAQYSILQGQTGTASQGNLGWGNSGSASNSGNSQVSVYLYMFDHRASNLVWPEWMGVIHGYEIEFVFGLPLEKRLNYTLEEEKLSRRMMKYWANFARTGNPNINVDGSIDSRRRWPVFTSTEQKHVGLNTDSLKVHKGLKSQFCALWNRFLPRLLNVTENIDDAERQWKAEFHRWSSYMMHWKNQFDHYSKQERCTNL

On to `C[C@@H]1C[C@H]2OC(=O)[C@@]3(C)CCC[C@@](C)([C@@H]23)[C@@]1(O)CCc1ccoc1` [marrubiin], for which it took 52.7 ± 5.66 µM to reach half-maximal inhibition (IC50).

What is called IC50 is the midpoint of a concentration-inhibition curve. A high value points to lower potency.
